Each structure is given as a SMILES string. In brackets after ≈: the same amount, converted by molar mass. Several values for one entry are separate records, joined by “and”; a condition that tells them apart may be missing. Equal values may be shown once. Read-outs that look alike come from different tables or passages of the source.

The source of these data is patent publication US9371521B2, “Substituted pyrazinedithiol reducing agents” (Wisconsin Alumni Research Foundation, priority 2014, dated 2016).

The conditions of data set [1]: literature value; cited from earlier work.
The conditions of data set [2]: literature value [37]; cited from earlier work.
Data set [3] is described as follows: Reduction potential from equilibrium reaction with oxidized DTT (HPLC, Nernst equation). Particulars: for Keq of equilibrium reaction with DTTox / Disulfide E°′ (reduction potential of oxidized form): 50 mM potassium phosphate buffer, pH 7.0, EDTA 2 mM, 24 h; for Disulfide E°′ (reduction potential of oxidized form): assuming −0.327 V for DTT, this work. It counts as physicochemical.

Data set [4] in a line: Reduction kinetics on oxidized βME. It is filed as physicochemical. Conditions: for kobs for reduction of βMEox: 5 mM each.
Another data set deals with T1, papain-Cys25-S—S—CH3 (Carica papaya, UniProt P00784).
T1 construct: Papain (lyophilized powder from papaya latex); purchased Sigma-Aldrich (St. Louis, Mo.); host or cells: papaya latex (natural source)
T1 sequence (P00784 134-345): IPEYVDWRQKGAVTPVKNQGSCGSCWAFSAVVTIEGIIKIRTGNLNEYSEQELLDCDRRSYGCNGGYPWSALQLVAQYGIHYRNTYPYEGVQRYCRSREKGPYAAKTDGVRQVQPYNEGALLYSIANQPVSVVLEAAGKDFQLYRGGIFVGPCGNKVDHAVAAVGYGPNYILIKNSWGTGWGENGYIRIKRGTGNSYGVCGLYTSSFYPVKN
Description: Reactivation of papain (reduction of active-site mixed disulfide). It counts as biochemical. Particulars: for kobs for reduction of papain-Cys25-S-S-CH3: 0.10 M imidazole-HCl buffer, pH 7.0, EDTA 2 mM. How it is done: (§1) Commercial reagents were used without further purification. Dithiothreitol (DTT) was from Research Products International (Mt. Prospect, Ill.). […].
Papain was inactivated by forming a mixed disulfide upon treatment of its active-site cysteine (Cys25) with S-methyl methanethiosulfonate following a procedure reported previously. A 1.25 mL solution of papain-Cys25-S—S—CH3 (4.4×10^−6 M) in a degassed 0.10 M imidazole-HCl buffer, pH 7.0, containing EDTA (2 mM) was placed in a 1.5-mL LoBind Eppendorf tube. At time t=0, 10 μL of a 1 mM stock solution of BMMP was added, and a timer was started. […] A unit of protein is defined as the amount of enzyme required to produce 4-nitroaniline at a rate of 1 μmol/min. The units of active papain at each time point were calculated by using an extinction coefficient for 4-nitroaniline of ε=8,800 M^−1cm^−1 at 410 nm. […] Y=enzymatic activity (%) at any time point was determined by dividing the number of active units of enzyme by the possible number of units in the solution, and plotted in FIG. 2A. To determine the value of the second-order rate constant (kobs) for the reducing agents, the second order rate equation (eq 4) was transformed into eq 5, which was fitted to the data with the program Prism 5.0.

The target in data set [5] is T2, creatine kinase-Cys283-S-S-G (Oryctolagus cuniculus, UniProt P00563).
T2 construct: creatine kinase (lyophilized powder from rabbit muscle); purchased Sigma-Aldrich (St. Louis, Mo.); host or cells: rabbit muscle (natural source)
Description: Reactivation of creatine kinase (reduction of mixed disulfide with glutathione). It is filed as biochemical, rabbit. Conditions: for kobs for reduction of creatine kinase-Cys283-S-S-G: 0.10 M imidazole-HCl buffer, pH 7.0, EDTA 2 mM. How it is done:
as §1
[21, 23] Enzymatic activity (%) at particular time points was calculated by dividing the number of active units of enzyme by the possible number of units in solution, and was plotted in FIG. 2B. Values of kobs (Table 2) were determined using eq.

Data set [6] is described as follows: Determination of BMMP solubility in buffered water (1H NMR). Conditions: aqueous buffer, thermodynamic from solid; 50 mM sodium phosphate buffer, pH 7.0. It is filed as physicochemical. How it is done:
A 20 mM stock solution of 2-butyne-1,4-diol (an ^1H NMR standard) was prepared in 50 mM sodium phosphate buffer, pH 7.0. BMMP was added to a solution containing 1 mL of this buffer and 0.1 mL of D2O until the solution was saturated completely. The mixture was sonicated to ensure complete dissolution and filtered into an NMR tube, and its spectrum was acquired. The solubility of BMMP was determined to be (64±14) mM by integration of the ^1H NMR peak areas of the aryl CH and methylene CH2SH protons for BMMP and the CH2OH peak for 2-butyne-1,4-diol.

Data set [7] can be described thus: Determination of thiol pKa values (pH titration monitored by UV absorbance at 238 nm). It counts as physicochemical. The method, then: Thiol pKa values were determined using a Varian Cary 60 UV-Vis spectrophotometer. Kinetic studies on proteins were carried out using a Varian Cary 400 Bio UV-Vis spectrometer with a Cary temperature controller at the Biophysics Instrumentation Facility at Madison (BIF). All NMR spectra were acquired at ambient temperature with a Bruker DMX-400 Avance spectrometer and a Bruker Avance III 500ii with cyroprobe spectrometer at the National Magnetic Resonance Facility at Madison (NMRFAM), and were referenced to TMS or residual protic solvent.
The thiol pKa values are determined by following a procedure reported previously that exploits the elevated absorbance of the deprotonated thiolate at 238 nm.
For BMMP determination, in eq 1, CT is the total thiol concentration, εSH^SH is the extinction coefficient of the doubly protonated form of BMMP, εSH^S- is the extinction coefficient of the singly protonated form of BMMP, and εS-^S- is the extinction coefficient of the doubly deprotonated form of BMMP.
For comparison, the thiol pKa values for DMH were determined in a similar fashion.

For data set [8] the following is noted: cited from earlier work.
Data set [9] concerns the target T2, creatine kinase-Cys283-S-S-G. Particulars: literature [23]; cited from earlier work.
[10] abbreviates: pH 5.0, 50 mM sodium acetate buffer.
The mark [11] stands for this setting: pH 7.0, 50 mM potassium phosphate buffer.
[12] abbreviates: Thiol pKa (second value, in parentheses).

T2 sequence (P00563 whole entry): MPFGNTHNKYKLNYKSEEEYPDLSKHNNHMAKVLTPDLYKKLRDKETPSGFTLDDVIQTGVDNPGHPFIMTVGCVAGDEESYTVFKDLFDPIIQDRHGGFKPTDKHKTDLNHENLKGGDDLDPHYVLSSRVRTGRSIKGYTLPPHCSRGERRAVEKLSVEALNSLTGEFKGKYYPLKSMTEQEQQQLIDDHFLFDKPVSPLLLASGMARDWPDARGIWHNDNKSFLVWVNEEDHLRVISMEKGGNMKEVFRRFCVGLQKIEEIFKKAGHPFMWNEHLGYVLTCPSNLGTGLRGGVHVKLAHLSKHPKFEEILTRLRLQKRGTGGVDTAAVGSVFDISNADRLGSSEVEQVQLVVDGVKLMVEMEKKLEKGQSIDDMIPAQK

In the case of `OC(CS)[C@H](O)CS` (mixture of isomers), in data set [1], the “Disulfide E°′ (reduction potential of oxidized form)” value is −0.327 V^b.
`Cc1cnc(C)cn1` [2,5-dimethylpyrazine]: the “pKa of the conjugate acid” value in data set [2] is recorded as 2.1.
On to `SCc1nccnc1CS` [BMMP, 2,3-bis(mercaptomethyl)pyrazine], for which, in data set [3], the “Keq of equilibrium reaction with DTTox” value worked out at 0.137±0.036 and the “Disulfide E°′ (reduction potential of oxidized form)” value is −0.301±0.003 V. Moreover, the “Free energy by which equilibrium favors reduced BMMP and oxidized DTT” value in data set [3] (reduced BMMP + oxidized DTT vs oxidized BMMP + reduced DTT) was -1.2 kcal/mol. The “Observed rate of reduction of βMEox at pH 5.0 compared with DTT at pH 7.0” value in data set [4] (BMMP pH 5.0 vs DTT pH 7.0) was “comparable”. In data set [4] (pH 5.0), the “kobs^BMMP/kobs^DTBA, reduction of βMEox” value was 3.6 and 4; the “kobs^BMMP/kobs^DTT, reduction of βMEox” value was 14.1 and 14. In [4] (setting [10]), the “kobs for reduction of βMEox” value came out at 0.0183 ± 0.0007 M⁻¹ s⁻¹. In data set [4] (pH 7.0), the “kobs^BMMP/kobs^DMH, reduction of βMEox” value amounted to 1.8; the “kobs^BMMP/kobs^DTBA, reduction of βMEox” value is 3.2 and 3; the “kobs^BMMP/kobs^DTT, reduction of βMEox” value was 11.4 and 11. Also, in data set [4] (setting [11]), the “kobs for reduction of βMEox” value amounted to 1.02 ± 0.07 M⁻¹ s⁻¹. Further, on papain-Cys25-S—S—CH3, the “kobs for reduction of papain-Cys25-S-S-CH3” value was 1139 ± 62 M⁻¹ s⁻¹. Further, at papain-Cys25-S—S—CH3 (pH 7.0), the “kobs^BMMP/kobs^DTT, reduction of papain Cys25-S—S—CH3” value was 13.1 and 13. Moreover, the “kobs for reduction of creatine kinase-Cys283-S-S-G” value in [5] came out at 476 ± 34 M⁻¹ s⁻¹. In [5] (pH 7.0), the “kobs^BMMP/kobs^DTBA, reduction of creatine kinase Cys283-S—S-glutathione” value is 6.8 and 7; the “kobs^BMMP/kobs^DTT, reduction of creatine kinase Cys283-S—S-glutathione” value was 5.8 and 6. The same compound showed a solubility in [6] of 64 ± 14 mM (≈ 11 mg/mL).
In data set [7] (Thiol pKa (first, lower value)), `CN(C(=O)CS)N(C)C(=O)CS` [DMH, N,N′-dimethyl-N,N′ bis(mercaptoacetyl)hydrazine, reference compound] returned a pKa of 8 ± 0.2. The pKa in data set [7] (setting [12]) is 9.1 ± 0.1. In [3], the “Keq of equilibrium reaction with DTTox” value is 0.0065±0.0020; the “Disulfide E°′ (reduction potential of oxidized form)” value is −0.262±0.004 V and −0.262±0.003 V. The “Rate of reduction of βMEox compared with other dithiols” value in data set [4] (pH 7.0) is listed as “faster than did DTT or DTBA but slower than did BMMP”. Besides, the “kobs for reduction of βMEox” value in [4] (setting [11]) is 0.56 ± 0.04 M⁻¹ s⁻¹. Also, in [8] (literature value), the “Thiol pKa (first, lower value)” value was 7.6 and the “Thiol pKa (second value, in parentheses)” value is 8.9.
As to `N[C@H](CS)CCS` [DTBA, dithiobutylamine, reference compound], the “kobs for reduction of βMEox” value came to 0.0051 ± 0.0004 M⁻¹ s⁻¹ in data set [4] (setting [10]) and 0.32 ± 0.02 M⁻¹ s⁻¹ in data set [4] (setting [11]). At papain-Cys25-S—S—CH3, the “kobs for reduction of papain-Cys25-S-S-CH3” value turned out to be 950 ± 51 M⁻¹ s⁻¹. In [5], the “kobs for reduction of creatine kinase-Cys283-S-S-G” value was 70 ± 2 M⁻¹ s⁻¹. For the same compound, the “Rate of reduction of creatine kinase mixed disulfide compared with DTT” value in [9] is “comparable to that of DTT”.
On to `O[C@H](CS)[C@H](O)CS` [DTT, dithiothreitol, reference compound], for which the figures for the “kobs for reduction of βMEox” value in data set [4] (setting [10]) and in data set [4] (setting [11]) were 0.0013 ± 0.0001 M⁻¹ s⁻¹ and 0.090 ± 0.005 M⁻¹ s⁻¹, respectively. Also, the “kobs for reduction of papain-Cys25-S-S-CH3” value at papain-Cys25-S—S—CH3 turned out to be 87 ± 3 M⁻¹ s⁻¹. Further, in data set [5], the “kobs for reduction of creatine kinase-Cys283-S-S-G” value stood at 82 ± 3 M⁻¹ s⁻¹. Further, the “Fraction in the reactive thiolate form” value in [8] (neutral pH) was “less than 1%”. Further, in data set [1], the “Disulfide E°′ (reduction potential of oxidized form)” value was −0.327 V.
In the case of `CN(C(=O)CS)N(C)C(=O)CS` [drawing 5], in data set [7], the “Thiol pKa (first, lower value)” value is given as 8.0 ± 0.2 and the “Thiol pKa (second value, in parentheses)” value worked out at 9.1 ± 0.1. The “Disulfide E°′ (reduction potential of oxidized form)” value in data set [3] is −0.262 ± 0.004 V^c.
Regarding `N[C@H](CS)CCS` [drawing 6], in data set [1], the “Disulfide E°′ (reduction potential of oxidized form)” value is on record as −0.317 V^d.
In the case of `SCc1nccnc1CS` [drawing 7], the pKa in data set [7] (Thiol pKa (first, lower value)) was 7.6 ± 0.1; in data set [7] (setting [12]), 9. Besides, in [3], the “Disulfide E°′ (reduction potential of oxidized form)” value is listed as −0.301 ± 0.003 V^c.
